pIC50: −log10 of the molar value. Read-outs that look alike come from different tables or passages of the source.
What was measured:
[1] = target: T1, cloned recombinant human HDAC-1 (Homo sapiens, UniProt Q13547); experiment: Human HDAC-1 enzyme inhibition, Assay 1 ([3H]-acetylated histone substrate, scintillation counting); type: biochemical
T1 construct: made in house; host or cells: Baculovirus insect cell expression system
Method: Assay 1. HDAC inhibitors were screened against a cloned recombinant human HDAC-1 enzyme expressed and purified from a Baculovirus insect cell expression system. […] The mixture was extracted with ethyl acetate and the released [^3H]-acetic acid was quantified by scintillation counting. For inhibition studies, the enzyme was preincubated with compounds at 4° C. for 30 minutes prior to initiation of the enzymatic assay. IC50 values for HDAC enzyme inhibitors were determined by performing dose response curves with individual compounds and determining the concentration of inhibitor producing fifty percent of the maximal inhibition.

[2] = tested on: HCT116 cells; experiment: MTT assay; type: cell-based; conditions: Homo sapiens, HCT116 cells, 72 hours
Method: HCT116 cells (2000/well) were plated into 96-well tissue culture plates one day before compound treatment. Compounds at various concentrations were added to the cells. The cells were incubated for 72 hours at 37° C. in 5% CO2 incubator. MTT (3-[4,5-dimethylthiazol-2-yl]-2,5 diphenyl tetrazolium bromide, Sigma) was added at a final concentration of 0.5 mg/ml and incubated with the cells for 4 hours before one volume of solubilization buffer (50% N,N-dimethylformamide, 20% SDS, pH 4.7) was added onto the cultured cells. […] OD values were converted to cell numbers according to a standard growth curve of the relevant cell line.

[3] = Table 5c, read-out: Human HDAC-1 IC50
[4] = Table 5F, read-out: Human HDAC-1 IC50
[5] = Table 5d, read-out: HDAC-1 IC50
[6] = Table 5b, read-out: Human HDAC-1 IC50

T1 sequence (Q13547 whole entry): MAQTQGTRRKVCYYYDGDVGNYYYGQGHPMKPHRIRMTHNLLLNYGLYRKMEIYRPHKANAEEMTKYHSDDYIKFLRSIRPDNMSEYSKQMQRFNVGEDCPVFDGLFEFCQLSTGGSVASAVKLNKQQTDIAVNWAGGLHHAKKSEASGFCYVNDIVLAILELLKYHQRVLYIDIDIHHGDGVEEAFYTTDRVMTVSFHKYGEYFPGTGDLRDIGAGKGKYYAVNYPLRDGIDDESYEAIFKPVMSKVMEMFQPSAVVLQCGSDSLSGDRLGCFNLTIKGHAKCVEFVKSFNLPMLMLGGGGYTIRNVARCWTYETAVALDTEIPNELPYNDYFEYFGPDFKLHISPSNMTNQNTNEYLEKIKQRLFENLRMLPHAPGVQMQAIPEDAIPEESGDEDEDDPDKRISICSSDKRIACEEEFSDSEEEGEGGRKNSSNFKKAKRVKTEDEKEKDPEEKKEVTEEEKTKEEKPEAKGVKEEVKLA

Row | Compound | pIC50 [1, 4] | pIC50 ([2]; HCT-116, 72 h, Table 5F) | pIC50 [1, 5] | pIC50 ([2]; HCT-116, Table 5d) | other results
1 | Nc1ccccc1NC(=O)/C=C/c1ccc(CCNC(=O)OCc2cccnc2)cc1 [Cpd 105] |  |  |  |  | pIC50 [1, 3]: 4.80; pIC50 ([2]; HCT-116, 72 h, Table 5c): 4.85
2 | Nc1ccccc1NC(=O)c1ccc(-c2noc(CN3CCOCC3)n2)cc1 [Cpd 355, N-(2-Amino-phenyl)-4-(5-morpholin-4-ylmethyl-[1,2,4]oxadiazol-3-yl)-benzamide] | 4.60 | 5.00 |  |  | 
3 | COc1ccc2nc(NCc3ccc(/C=C/C(=O)Nc4ccccc4N)cc3)sc2c1 [Cpd 502] |  |  | 5.52 | < 4.60 | 
4 | Nc1ccccc1NC(=O)/C=C/c1ccc(CNc2ccc3c(c2)OCO3)cc1 [Cpd 505, N-(2-Amino-phenyl)-3-[4-(benzo[1,3]dioxol-5-ylaminomethyl)-phenyl]-acrylamide] |  |  | 5.52 | 5.22 | 
5 | Nc1ccccc1NC(=O)/C=C/c1ccc(CNc2cccc([N+](=O)[O-])c2)cc1 [Cpd 551, N-(2-Amino-phenyl)-3-{4-[(3-nitro-phenylamino)-methyl]-phenyl}-acrylamide] |  |  | 4.62 | 5.05 | 
6 | COc1cc(NCc2ccc(C(=O)Nc3ccccc3N)cn2)cc(OC)c1OC [Cpd 445, N-(2-Amino-phenyl)-6-[(3,4,5-trimethoxy-phenylamino)-methyl]-nicotinamide] | 4.80 | 5.22 |  |  | 
7 | Nc1ccccc1NC(=O)/C=C/c1ccc(CNc2cccc(CO)c2)cc1 [Cpd 530, N-(2-Amino-phenyl)-3-{4-[(3-hydroxymethyl-phenylamino)-methyl]-phenyl}-acrylamide] |  |  | 5.10 | 5.05 | 
8 | Nc1ccccc1NC(=O)/C=C/c1ccc(CNc2cccc(Cl)c2)cc1 [Cpd 553, N-(2-Amino-phenyl)-3-{4-[(3-chloro-phenylamino)-methyl]-phenyl}-acrylamide] |  |  | 5.40 | 4.92 | 
9 | Nc1ccccc1NC(=O)c1ccc(NC(=O)C(F)(F)F)cc1 [Cpd 431, N-(2-Aminophenyl)-4-(2,2,2-trifluoro-acetylamino)-benzamide] | 5.30 | 5.30 |  |  | 
10 | Nc1ccccc1NC(=O)/C=C/c1ccc(NCCNc2nccs2)nc1 [Cpd 522, N-(2-Amino-phenyl)-3-{6-[2-(thiazol-2-ylamino)-ethylamino]-pyridin-3-yl}-acrylamide] |  |  | 4.77 | 4.52 | 
11 | Cc1cc(C)cc(NCc2ccc(C(=O)Nc3ccccc3N)cc2)c1 [Cpd 407, N-(2-Amino-phenyl)-4-[(3,5-dimethyl-phenylamino)-methyl]-benzamide] | 5.52 | 5.70 |  |  | 
12 | COc1cc(C2C=CC(c3ccc(C(=O)Nc4ccccc4N)cc3)O2)cc(OC)c1OC (centres unmarked) [compound 289, N-(2-Amino-phenyl)-4-[5-(3,4,5-trimethoxy-phenyl)-2,5-dihydro-furan-2-yl]-benzamide] | 4.77 | 5.30 |  |  | 
13 | Nc1ccccc1NC(=O)/C=C/c1ccc(CNc2cc(Cl)cc(Cl)c2)cc1 [Cpd 535, N-(2-Amino-phenyl)-3-{4-[(3,5-dichloro-phenylamino)-methyl]-phenyl}-acrylamide] |  |  | 5.40 | 5.22 | 
14 | CSc1cccc(NCc2ccc(/C=C/C(=O)Nc3ccccc3N)cc2)c1 [Cpd 555, N-(2-Amino-phenyl)-3-{4-[(3-methylsulfanyl-phenylamino)-methyl]-phenyl}-acrylamide] |  |  | 4.85 | 5.15 | 
15 | CC(C)c1ccc(NCc2ccc(/C=C/C(=O)Nc3ccccc3N)cc2)cc1 [Cpd 510, N-(2-Amino-phenyl)-3-{4-[(4-isopropyl-phenylamino)-methyl]-phenyl}-acrylamide] |  |  | 5.22 | 5.30 | 
16 | Nc1ccccc1NC(=O)c1ccc(CNc2nccc3ccccc23)cc1 [Cpd 399, N-(2-Amino-phenyl)-4-(isoquinolin-1-ylaminomethyl)-benzamide] | 4.85 | 5.05 |  |  | 
17 | Nc1ccccc1NC(=O)c1ccc(CCN2C(=O)c3ccccc3C2=O)cc1 [Cpd 152, N-(2-Amino-phenyl)-4-[2-(1,3-dioxo-1,3-dihydro-isoindol-2-yl)-ethyl]-benzamide] |  |  |  |  | pIC50 ([1]; Table 5E, read-out: Human HDAC-1 IC50): 6.52; pIC50 ([2]; HCT-116, 72 h, Table 5E): 4.96
18 | Nc1ccc(CNc2ncc(/C=C/C(=O)Nc3ccccc3N)cn2)cc1 [Cpd 115, 3-[2-(4-amino-benzylamino)-pyrimidin-5-yl]-N-(2-amino-phenyl)-acrylamide] |  |  |  |  | pIC50 [1, 3]: 4.82; pIC50 ([2]; HCT-116, 72 h, Table 5c): 5.05
19 | Nc1ccccc1NC(=O)/C=C/c1ccc(CNc2cccc(F)c2)cc1 [Cpd 559, N-(2-Amino-phenyl)-3-{4-[(3-fluoro-phenylamino)-methyl]-phenyl}-acrylamide] |  |  | 5.40 | 4.96 | 
20 | Nc1ccccc1NC(=O)c1ccc(CNc2nc(NCCc3ccccc3)nc(NC3Cc4ccccc4C3)n2)cc1 [Cpd 27] |  |  |  |  | pIC50 ([1]; Table 5a, read-out: Human HDAC-1 IC50): 6.40; pIC50 ([2]; HCT-116, 72 h, Table 5a): 5.70

Row | Compound | pIC50 [1, 4] | pIC50 ([2]; HCT-116, 72 h, Table 5F) | pIC50 [1, 5] | pIC50 ([2]; HCT-116, Table 5d) | other results
21 | Nc1ccccc1NC(=O)/C=C/c1ccc(CNc2cccc(O)c2)cc1 [Cpd 528] |  |  | 4.70 | 4.49 | 
22 | COc1cccc(CCNc2nc(NCc3ccc(C(=O)Nc4ccccc4N)cc3)nc(NC3CC3)n2)c1 [Cpd 479] |  |  |  |  | pIC50 [1, 6]: 6.40; pIC50 ([2]; HCT-116, 72 h, Table 5b): 6.22
23 | Cc1ccc(Sc2ccc(C(=O)Nc3ccccc3N)cn2)cc1 [Cpd 464, N-(2-Amino-phenyl)-6-p-tolylsulfanyl-nicotinamide] | 5.40 | 4.96 |  |  | 
24 | Nc1ccccc1NC(=O)/C=C/c1ccc(CNc2ccc(Cc3nnn[nH]3)cc2)cc1 [Cpd 544, N-(2-Amino-phenyl)-3-(4-{[4-(1H-tetrazol-5-ylmethyl)-phenylamino]-methyl}-phenyl)-acrylamide] |  |  | 4.77 | 4.35 | 
25 | COc1cc(NCc2ccc(/C=C/C(=O)Nc3ccccc3N)cc2)cc(OC)c1 [Cpd 494] |  |  | 5.52 | 5.40 | 
26 | Nc1ccccc1NC(=O)c1ccc(CNc2nc(NC3Cc4ccccc4C3)nc(-c3ccccc3)n2)cc1 [Cpd 485, N-(2-amino-phenyl)-4-{[6-(2-indanyl-amino)-4-phenyl-[1,3,5]-triazin-2-yl-amino]-methyl}-benzamide] |  |  |  |  | pIC50 [1, 6]: 6.40; pIC50 ([2]; HCT-116, 72 h, Table 5b): 5.52
27 | Nc1ccccc1NC(=O)/C=C/c1ccc(CNc2ccc(-c3ccccc3)cc2)cc1 [Cpd 511, N-(2-Amino-phenyl)-3-[4-(biphenyl-4-ylaminomethyl)-phenyl]-acrylamide] |  |  | 5.40 | < 4.60 | 
28 | Nc1ccccc1NC(=O)/C=C/c1ccc(CNc2nccc(C(F)(F)F)n2)cc1 [Cpd 529] |  |  | 5.30 | 4.77 | 
29 | Nc1ccccc1NC(=O)c1ccc(CNc2ccc3[nH]c(=O)[nH]c3c2)cc1 [Cpd 449, N-(2-Amino-phenyl)-4-[(2-oxo-2,3-dihydro-1H-benzoimidazol-5-ylamino)-methyl]-benzamide] | 6.00 | 5.22 |  |  | 
30 | COc1cc(N2C(=O)OCC2c2ccc(C(=O)Nc3ccccc3N)cc2)cc(OC)c1OC (centres unmarked) [compound 296, N-(2-Amino-phenyl)-4-[2-oxo-3-(3,4,5-trimethoxy-phenyl)-oxazolidin-4-yl]-benzamide] | 4.70 | 5.15 |  |  | 
31 | Nc1ccccc1NC(=O)/C=C/c1ccc(CNc2cccc(-c3nnn[nH]3)c2)cc1 [Cpd 543, N-(2-Amino-phenyl)-3-(4-{[3-(1H-tetrazol-5-yl)-phenylamino]-methyl}-phenyl)-acrylamide] |  |  | 4.82 | < 4.60 | 
32 | Nc1ccccc1NC(=O)c1ccc(Oc2ccccc2)cc1 [Cpd 366, N-(2-Amino-phenyl)-4-phenoxy-benzamide] | 4.85 | 5.00 |  |  | 
33 | COc1cc(NCc2ccc(C(=O)Nc3ccccc3N)cc2)c(C(=O)O)cc1OC [Cpd 406, 2-[4-(2-Amino-phenylcarbamoyl)-benzylamino]-4,5-dimethoxy-benzoic acid] | 5.52 | 4.96 |  |  | 
34 | Nc1ccccc1NC(=O)c1ccc(C(=O)Nc2ccccc2N)nc1 [Cpd 380, Pyridine-2,5-dicarboxylic acid bis-[(2-amino-phenyl)-amide]] | 5.22 | 5.10 |  |  | 
35 | Nc1ccccc1NC(=O)/C=C/c1ccc(CNc2cccc(OC(F)(F)F)c2)cc1 [Cpd 506, N-(2-Amino-phenyl)-3-{4-[(3-trifluoromethoxy-phenylamino)-methyl]-phenyl}-acrylamide] |  |  | 4.82 | 4.96 | 
36 | N#C/N=C(\NCc1ccc(C(=O)Nc2ccccc2N)cc1)Nc1ccncc1 [Cpd 240] | 5.74 | 5.00 |  |  | 
37 | Cc1nc(NCc2ccc(C(=O)Nc3ccccc3N)cc2)nc(NC2Cc3ccccc3C2)n1 [Cpd 218] |  |  |  |  | pIC50 [1, 6]: 7.00; pIC50 ([2]; HCT-116, 72 h, Table 5b): 6.30
38 | COc1cc(CN(C)Cc2ccc(/C=C/C(=O)Nc3ccccc3N)cc2)cc(OC)c1OC [Cpd 107] |  |  |  |  | pIC50 [1, 3]: 4.82; pIC50 ([2]; HCT-116, 72 h, Table 5c): 4.77
39 | Nc1ccccc1NC(=O)c1ccc(C#CC(c2ccc(Cl)cc2)N2CCOCC2)cc1 (centres unmarked) [Cpd 201] | 4.96 | 5.30 |  |  | 
40 | COc1cc(NCc2ccc(C(=O)Nc3ccccc3N)cc2)cc(OC)c1OC [Cpd 571] | 5.40 | 4.96 |  |  | 
